Assay results reported in patent publication US11129389B2, “Gluten-free grain-concentrate substitute for fermented wheat germ food product and method of preparation” (priority 2013, dated 2021).

Test: In vivo experiments: activity level after removal of a component
Settings: named component removed from product
From the text: The basis for the disclosure that 2-6 methoxy substituted benzoquinones is not an active component of the present invention is vivo experiments.

Compound | activity level of the present invention when the component was removed
2-6 methoxy substituted benzoquinones | remained unchanged
COc1cc(O)cc(OC)c1O [a, 2,6-dimethoxy-1,4-hydroquinone] | decreased
COC1=CC(=O)C=CC1=O [b, monomethoxy-1,4-benzoquinone] | decreased
COc1cc(O)ccc1O [c, monomethoxy-1,4-hydroquinone] | decreased
